One assay has as its system aorta rings. Kind of assay: Vasorelaxant effect in vitro (phenylephrine-contracted aorta rings). To be noted: Oryctolagus cuniculus; relaxation of phenylephrine-induced contraction, rabbit aorta rings. Here is the method: B-1. Vasorelaxant Effect In Vitro
Rabbits are stunned by a blow to the neck and exsanguinated. The aorta is removed, freed from adhering tissue and divided into rings of a width of 1.5 mm. The rings are placed individually under an initial tension in 5 ml organ baths with Krebs-Henseleit solution which is at 37° C., is gassed with carbogen and has the following composition (in each case mM): sodium chloride: 119; potassium chloride: 4.8; calcium chloride dihydrate: 1; magnesium sulphate heptahydrate: 1.4; potassium dihydrogenphosphate: 1.2; sodium bicarbonate: 25; glucose: 10. The contractile force is determined with Statham UC2 cells, amplified and digitalized using A/D transducers (DAS-1802 HC, Keithley Instruments Munich), and recorded in parallel on linear recorders. To produce a contraction, phenylephrine is added to the bath cumulatively in increasing concentration. After several control cycles, the substance to be investigated is added in each further run in increasing dosage in each case, and the height of the contraction achieved is compared with the height of the contraction reached in the last preceding run. This is used to calculate the concentration needed to reduce the magnitude of the control value by 50% (IC50 value). The standard administration volume is 5 μl; the DMSO content in the bath solution corresponds to 0.1%.

Assay [1] addresses T1, recombinant guanylate cyclase reporter cell line (Rattus norvegicus, UniProt P19686+P20595).
T1 construct: expressed in transfected cells; host or cells: recombinant reporter cell line
T1 sequence (P19686 1-690): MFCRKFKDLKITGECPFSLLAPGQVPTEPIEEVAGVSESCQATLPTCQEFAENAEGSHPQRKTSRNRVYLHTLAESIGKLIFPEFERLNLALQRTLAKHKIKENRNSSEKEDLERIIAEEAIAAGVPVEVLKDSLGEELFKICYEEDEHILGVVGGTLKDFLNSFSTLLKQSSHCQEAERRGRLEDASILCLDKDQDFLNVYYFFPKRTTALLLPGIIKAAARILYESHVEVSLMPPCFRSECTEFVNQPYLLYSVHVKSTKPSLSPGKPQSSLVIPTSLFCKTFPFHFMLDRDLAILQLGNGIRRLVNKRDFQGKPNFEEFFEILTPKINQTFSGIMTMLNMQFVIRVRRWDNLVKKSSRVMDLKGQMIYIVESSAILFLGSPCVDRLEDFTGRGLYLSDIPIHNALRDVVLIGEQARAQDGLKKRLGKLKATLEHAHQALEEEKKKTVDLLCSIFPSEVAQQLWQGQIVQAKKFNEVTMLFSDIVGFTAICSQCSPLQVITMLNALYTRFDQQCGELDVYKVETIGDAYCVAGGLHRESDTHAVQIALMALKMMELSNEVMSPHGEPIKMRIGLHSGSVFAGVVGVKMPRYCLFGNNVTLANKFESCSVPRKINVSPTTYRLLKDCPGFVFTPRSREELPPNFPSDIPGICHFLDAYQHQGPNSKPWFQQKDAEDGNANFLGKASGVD
T1 sequence (P20595 1-619): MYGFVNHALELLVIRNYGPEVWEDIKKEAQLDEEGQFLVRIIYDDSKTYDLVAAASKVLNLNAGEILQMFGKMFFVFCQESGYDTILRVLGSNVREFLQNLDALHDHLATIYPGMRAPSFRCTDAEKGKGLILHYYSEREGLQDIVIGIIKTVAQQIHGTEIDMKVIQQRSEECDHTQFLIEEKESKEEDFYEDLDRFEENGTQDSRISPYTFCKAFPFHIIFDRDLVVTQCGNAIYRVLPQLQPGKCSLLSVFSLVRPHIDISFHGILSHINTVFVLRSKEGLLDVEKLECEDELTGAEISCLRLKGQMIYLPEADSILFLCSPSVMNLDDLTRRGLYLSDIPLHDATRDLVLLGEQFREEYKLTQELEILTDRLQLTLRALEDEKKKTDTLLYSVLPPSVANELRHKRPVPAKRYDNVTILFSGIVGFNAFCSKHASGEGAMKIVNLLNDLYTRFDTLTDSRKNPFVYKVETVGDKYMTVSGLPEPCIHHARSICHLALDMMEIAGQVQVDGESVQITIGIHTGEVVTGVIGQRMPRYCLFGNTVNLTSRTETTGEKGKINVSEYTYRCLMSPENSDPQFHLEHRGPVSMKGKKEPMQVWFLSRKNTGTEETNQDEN
Nature of the assay: Effect on a recombinant guanylate cyclase reporter cell line. It counts as cell-based. Here is the method:
B-2. Effect on a Recombinant Guanylate Cyclase Reporter Cell Line
The cellular activity of the compounds according to the invention is determined using a recombinant guanylate cyclase reporter cell line, as described in F. Wunder et al., Anal. Biochem. 339, 104-112 (2005).

Take `C[C@]1(C(F)(F)F)C(=O)Nc2nc(-c3nn(Cc4ncccc4F)c4ncc(F)cc34)nc(NCCC(F)(F)F)c21` (single isomer, unassigned) [Example 1-2]: the IC50 with aorta rings is 237 nM. In addition, the “MEC (minimum effective concentration)” value in assay [1] is 1.0 µM.
For the compound `C[C@@]1(C(F)(F)F)C(=O)Nc2nc(-c3nn(Cc4ncccc4F)c4ncc(F)cc34)nc(NCCC(F)(F)F)c21` (single isomer, unassigned) [Example 1-1], inhibition with aorta rings was half-maximal at 265 nM (IC50). Besides, the “MEC (minimum effective concentration)” value in assay [1] was 0.1 µM.

A word on the IC50: it is the point on the concentration scale where inhibition reaches its midpoint. A low value points to greater potency.
